Test results: PubChem BioAssay AID248 (DTP/NCI, 2004)
“And” between values parts separate entries of the source, which are not always exact repeats. Equal values may be shown once. Inconclusive results and toxic doses are left out. No stated cut-off is given here; in the data, active means T/C of 150% or more; inactive means T/C below 125%. Peptide text beside a SMILES is read from it. * marks the point of attachment. Cbz = O=C(OCc1ccccc1)*

Test system: L1210 leukemia ip in BDF1 mice, survival T/C
Assay: NCI In Vivo Anticancer Drug Screen. Data for tumor model L1210 Leukemia (intraperitoneal) in B6D2F1 (BDF1) mice
Conditions: higher = longer survival
Summary of the method: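 Transplanted-tumor mice were given test agent; controls received vehicle only. Survival readings from the two groups were divided (treated over control).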

[1] = endpoint: mean survival time, dose: 100.0 mg/kg/injection, schedule: Q01DX009 (ip), vehicle: saline with Tween-80
[2] = endpoint: mean survival time, dose: 100.0 mg/kg/injection, schedule: Q04DX003 (ip), vehicle: saline with Tween-80
[3] = endpoint: mean survival time, dose: 200.0 mg/kg/injection, schedule: Q01DX009 (ip), vehicle: saline with Tween-80
[4] = endpoint: mean survival time, dose: 200.0 mg/kg/injection, schedule: Q04DX003 (ip), vehicle: saline with Tween-80
[5] = endpoint: mean survival time, dose: 400.0 mg/kg/injection, schedule: Q01DX009 (ip), vehicle: saline with Tween-80
[6] = endpoint: mean survival time, dose: 400.0 mg/kg/injection, schedule: Q04DX003 (ip), vehicle: saline with Tween-80
[7] = endpoint: mean survival time, dose: 100.0 mg/kg/injection, schedule: Q04DX003 (ip), vehicle: saline
[8] = endpoint: mean survival time, dose: 200.0 mg/kg/injection, schedule: Q04DX003 (ip), vehicle: saline
[9] = endpoint: mean survival time, dose: 400.0 mg/kg/injection, schedule: Q04DX003 (ip), vehicle: saline
[10] = endpoint: mean survival time, dose: 50.0 mg/kg/injection, schedule: Q01DX001 (ip), vehicle: carboxymethylcellulose (CMC)
[11] = endpoint: mean survival time, dose: 100.0 mg/kg/injection, schedule: Q01DX001 (ip), vehicle: carboxymethylcellulose (CMC)
[12] = endpoint: mean survival time, dose: 200.0 mg/kg/injection, schedule: Q01DX001 (ip), vehicle: carboxymethylcellulose (CMC)
[13] = endpoint: mean survival time, dose: 400.0 mg/kg/injection, schedule: Q01DX001 (ip), vehicle: carboxymethylcellulose (CMC)
[14] = endpoint: mean survival time, dose: 100.0 mg/kg/injection, schedule: Q04DX002 (ip), vehicle: Klucel (hydroxypropylcellulose) (HPC)
[15] = endpoint: mean survival time, dose: 200.0 mg/kg/injection, schedule: Q04DX002 (ip), vehicle: Klucel (hydroxypropylcellulose) (HPC)
[16] = endpoint: mean survival time, dose: 400.0 mg/kg/injection, schedule: Q04DX002 (ip), vehicle: Klucel (hydroxypropylcellulose) (HPC)
[17] = endpoint: mean survival time, dose: 50.0 mg/kg/injection, schedule: Q01DX009 (ip), vehicle: saline
[18] = endpoint: mean survival time, dose: 100.0 mg/kg/injection, schedule: Q01DX001 (ip), vehicle: saline
[19] = endpoint: mean survival time, dose: 200.0 mg/kg/injection, schedule: Q01DX001 (ip), vehicle: saline
[20] = endpoint: mean survival time, dose: 400.0 mg/kg/injection, schedule: Q01DX001 (ip), vehicle: saline

Measured: T/C

CN(C)C(=O)Sc1ccc(C(=O)O)cc1
inactive: endpoint: mean survival time, dose: 100.0 mg/kg/injection, schedule: Q04DX003 (ip), vehicle: gum acacia 109 % of control | endpoint: mean survival time, dose: 200.0 mg/kg/injection, schedule: Q04DX003 (ip), vehicle: gum acacia 98 % of control | endpoint: mean survival time, dose: 400.0 mg/kg/injection, schedule: Q04DX003 (ip), vehicle: gum acacia 113 % of control

CC1(CC(O)(C(F)(F)F)C(F)(F)F)NC(=O)NC1=O (stereo not drawn)
inactive: [1] 97 % of control | [2] 93 % of control | [3] 99 % of control | [4] 96 % of control | [5] 99 % of control | [6] 91 % of control

COc1cccc(OC)c1-c1oc2ccccc2c(=O)c1O
inactive: endpoint: mean survival time, dose: 100.0 mg/kg/injection, schedule: Q01DX009 (ip), vehicle: acetone 94 % of control | [7] 95 % of control | endpoint: mean survival time, dose: 200.0 mg/kg/injection, schedule: Q01DX009 (ip), vehicle: acetone 95 % of control | [8] 94 % of control | endpoint: mean survival time, dose: 400.0 mg/kg/injection, schedule: Q01DX009 (ip), vehicle: acetone 95 % of control | [9] 94 % of control

C1=CC2OC1c1ccccc12
inactive: [10] 95 % of control | [11] 92 % of control | [12] 106 % of control | [13] 97 % of control

CC(=O)Nc1ccc(Br)c(NC(C)=O)n1
inactive: [1] 109 % of control | [3] 101 % of control | [5] 112 % of control

C/C(=C\C(=O)O)C(=O)O (tested in a mixture with another compound)
inactive: endpoint: mean survival time, dose: 264.0 mg/kg/injection, schedule: Q01DX001 (ip), vehicle: carboxymethylcellulose (CMC) 113 % of control | [13] 112 % of control | endpoint: mean survival time, dose: 600.0 mg/kg/injection, schedule: Q01DX001 (ip), vehicle: carboxymethylcellulose (CMC) 112 % of control

CC(C)CC(=O)C=C(C(F)(F)F)C(F)(F)F
inactive: endpoint: mean survival time, dose: 100.0 mg/kg/injection, schedule: Q01DX001 (ip), vehicle: saline with Tween-80 91 % of control | endpoint: mean survival time, dose: 200.0 mg/kg/injection, schedule: Q01DX001 (ip), vehicle: saline with Tween-80 96 % of control | endpoint: mean survival time, dose: 400.0 mg/kg/injection, schedule: Q01DX001 (ip), vehicle: saline with Tween-80 93 % of control

CCN(C(C)C)C(C)C
inactive: endpoint: mean survival time, dose: 25.0 mg/kg/injection, schedule: Q01DX009 (ip), vehicle: saline with Tween-80 101 % of control | endpoint: mean survival time, dose: 50.0 mg/kg/injection, schedule: Q01DX009 (ip), vehicle: saline with Tween-80 106 % of control | [1] 96 % of control | [2] 93 % of control

O=C1CC(=Nc2ccc([N+](=O)[O-])cc2)NN1c1c(Cl)cc(Cl)cc1Cl
inactive: [1] 97 % of control | [3] 101 % of control | [5] 90 % of control

O=C1CSCc2nc3ccccc3n21
inactive: [1] 97 % of control | [2] 106 % of control | [3] 100 % of control | [4] 103 % of control | [5] 100 % of control | [6] 97 % of control

CC(C)C(NC(=O)C1CCCN1C(=O)OCc1ccccc1)C(=O)O (stereo not drawn) (Cbz-Pro-Val-OH; configuration not given here)
inactive: endpoint: mean survival time, dose: 100.0 mg/kg/injection, schedule: Q01DX009 (ip), vehicle: saline sonified 102 % of control | endpoint: mean survival time, dose: 100.0 mg/kg/injection, schedule: Q04DX003 (ip), vehicle: saline sonified 97 % of control | endpoint: mean survival time, dose: 200.0 mg/kg/injection, schedule: Q01DX009 (ip), vehicle: saline sonified 92 % of control | endpoint: mean survival time, dose: 200.0 mg/kg/injection, schedule: Q04DX003 (ip), vehicle: saline sonified 96 % of control | endpoint: mean survival time, dose: 400.0 mg/kg/injection, schedule: Q01DX009 (ip), vehicle: saline sonified 97 % of control | endpoint: mean survival time, dose: 400.0 mg/kg/injection, schedule: Q04DX003 (ip), vehicle: saline sonified 97 % of control

Cc1cc(F)ccc1OCC(=O)Oc1ccc([N+](=O)[O-])cc1
inactive: [14] 108 % of control | [15] 101 % of control | [16] 111 % of control

COC(=O)C(C)=O
inactive: [1] 103 % of control | [3] 101 % of control | [5] 98 % of control

CO/C(Cc1cc(O)cc(O)c1)=N\N
inactive: [2] 93 % of control | [4] 92 % of control | [6] 101 % of control

C1CC2CCCN2C1
inactive: endpoint: mean survival time, dose: 12.5 mg/kg/injection, schedule: Q01DX009 (ip), vehicle: saline 93 % of control | endpoint: mean survival time, dose: 25.0 mg/kg/injection, schedule: Q01DX009 (ip), vehicle: saline 93 % of control | [17] 95 % of control

CNCC(NC)c1cc(OC)c(OC)c(OC)c1 (stereo not drawn)
inactive: [7] 94 % of control | [8] 95 % of control | [9] 94 % of control

CCCNC
inactive: [17] 90 % of control | endpoint: mean survival time, dose: 100.0 mg/kg/injection, schedule: Q01DX009 (ip), vehicle: saline 100 % of control | [7] 96 % of control | [8] 98 % of control

Cc1cc(CC(=S)[S-])[n+](C)c(CC(=S)S)c1
inactive: endpoint: mean survival time, dose: 87.5 mg/kg/injection, schedule: Q01DX009 (ip), vehicle: Klucel (hydroxypropylcellulose) (HPC) 105 % of control | endpoint: mean survival time, dose: 175.0 mg/kg/injection, schedule: Q01DX009 (ip), vehicle: Klucel (hydroxypropylcellulose) (HPC) 101 % of control

Cc1cc([N+](=O)[O-])cc(C)c1N
inactive: [10] 100 % of control | [11] 102 % of control | [12] 100 % of control | [13] 110 % of control

Cc1cc(S(N)(=O)=O)ccc1Cl
inactive: [2] 93 % of control | [4] 93 % of control | [6] 104 % of control

COC(=O)c1cn[nH]c1C(=O)OC
inactive: [18] 100 % of control | [19] 100 % of control | [20] 96 % of control

CN(C)C1C(=O)C(C(N)=O)=C(O)C2(O)C(=O)C3=C(O)c4c(O)cccc4C(C)(O)C3CC12 (stereo not drawn)
inactive: [18] 94 % of control | [19] 96 % of control | [20] 100 % of control | endpoint: median survival time, dose: 20.0 mg/kg/injection, schedule: Q04DX003 (ip), vehicle: water 103 % of control and 105 % of control | endpoint: median survival time, dose: 40.0 mg/kg/injection, schedule: Q04DX003 (ip), vehicle: water 97 % of control and 100 % of control | endpoint: median survival time, dose: 80.0 mg/kg/injection, schedule: Q04DX003 (ip), vehicle: water 97 % of control and 100 % of control | endpoint: median survival time, dose: 160.0 mg/kg/injection, schedule: Q04DX003 (ip), vehicle: water 105 % of control and 111 % of control

CCC[CH2][Sn]([I])([CH2]I)[CH2]CCC
inactive: endpoint: mean survival time, dose: 6.25 mg/kg/injection, schedule: Q04DX002 (ip), vehicle: saline with Tween-80 112 % of control | endpoint: mean survival time, dose: 12.5 mg/kg/injection, schedule: Q04DX002 (ip), vehicle: saline with Tween-80 112 % of control

CN(C)C=Nc1cccc2cn[nH]c12
inactive: endpoint: mean survival time, dose: 100.0 mg/kg/injection, schedule: Q04DX002 (ip), vehicle: saline with Tween-80 106 % of control | endpoint: mean survival time, dose: 200.0 mg/kg/injection, schedule: Q04DX002 (ip), vehicle: saline with Tween-80 106 % of control | endpoint: mean survival time, dose: 400.0 mg/kg/injection, schedule: Q04DX002 (ip), vehicle: saline with Tween-80 98 % of control

CC(=O)OC1CCC2(C)C(=CCC3C2CCC2(C)C3CC3C(c4ccccc4F)=NN(c4ccccc4)C32C#N)C1 (stereo not drawn)
inactive: [14] 106 % of control | [15] 95 % of control | [16] 95 % of control

Oc1ccc2c(c1)CCCC2
inactive: endpoint: mean survival time, dose: 75.0 mg/kg/injection, schedule: Q04DX003 (ip), vehicle: saline 102 % of control

CC(=O)Nc1ccc(S(=O)(=O)Nc2cc(Cl)ccc2Cl)cc1
inactive: [1] 103 % of control | [3] 102 % of control | [5] 97 % of control

CN(N=O)c1ccc(C=C2c3ccccc3-c3ccccc32)cc1
inactive: [10] 102 % of control | [11] 106 % of control | [12] 96 % of control | [13] 102 % of control

COC(=O)c1cc(C)cc(N(c2ccccc2N)S(=O)(=O)c2ccc(C)cc2)c1C
inactive: [18] 92 % of control | [19] 92 % of control

O=C(N/C=C/NC(=O)Nc1ccc([N+](=O)[O-])cc1)Nc1ccc([N+](=O)[O-])cc1
inactive: endpoint: mean survival time, dose: 100.0 mg/kg/injection, schedule: Q04DX003 (ip), vehicle: Klucel (hydroxypropylcellulose) (HPC) 100 % of control | endpoint: mean survival time, dose: 200.0 mg/kg/injection, schedule: Q04DX003 (ip), vehicle: Klucel (hydroxypropylcellulose) (HPC) 89 % of control | endpoint: mean survival time, dose: 400.0 mg/kg/injection, schedule: Q04DX003 (ip), vehicle: Klucel (hydroxypropylcellulose) (HPC) 92 % of control

CC(C)(C)CC(C)(C)c1ccc(OCCOc2ccc(NS(=O)(=O)c3ccc(N)c([N+](=O)[O-])c3)cc2)cc1
inactive: [2] 94 % of control | [4] 92 % of control
